# In ChEMBL document CHEMBL3885861, “Open TG-GATES”:
# Species on record: Rattus norvegicus
# Assay: Open TG-GATES - Regimen: Single
# Type: toxicity, organism-based, Sprague-Dawley
# Parameters: regimen Single, gender Male, age 6 weeks
# Settings: in vivo, po, route gavage; for WBC / APTT / Bas / Eos / Fbg / Hb / Ht / Lym / MCH / MCHC / MCV / Mono / Neu / PT / Plat / RBC / Ret: tissue Blood; for KIDNEY_L / KIDNEY_R / KIDNEY_TOTAL: tissue Kidney; for LIVER: tissue Liver; for A/G / ALP / ALT / AST / BUN / CRE / Ca / Cl / DBIL / GLC / IP / K / LDH / Na / PL / RALB / TBIL / TC / TG / TP / gamma-GTP: tissue Plasma
# [1] = 2 mg/kg, 9 h, dose level Middle
# [2] = 2 mg/kg, 24 h, dose level Middle
smiles,measurement,setting,value
COc1ccc2c(c1)c(CC(=O)O)c(C)n2C(=O)c1ccc(Cl)cc1 [INDOMETHACIN],WBC,[1],114.3 x10_2/uL
same,KIDNEY_L,[1],0.9 g
same,KIDNEY_R,[1],0.9 g
same,KIDNEY_TOTAL,[1],1.8 g
same,LIVER,[1],8.3 g
same,A/G,[1],2.7
same,ALP,[1],944 IU/L
same,ALT,[1],35.2 IU/L
same,AST,[1],65.6 IU/L
same,BUN,[1],14.2 mg/dL
same,CRE,[1],0.5 mg/dL
same,Ca,[1],10.2 mg/dL
same,Cl,[1],106.8 meq/L
same,DBIL,[1],0.01 mg/dL
same,GLC,[1],199.6 mg/dL
same,IP,[1],10.5 mg/dL
same,K,[1],5 meq/L
same,LDH,[1],80.8 IU/L
same,Na,[1],138.2 meq/L
same,PL,[1],125.8 mg/dL
same,RALB,[1],3.9 g/dL
same,TBIL,[1],0.5 mg/dL
same,TC,[1],72.2 mg/dL
same,TG,[1],35.4 mg/dL
same,TP,[1],5.3 g/dL
same,gamma-GTP,[1],1.8 IU/L
same,TERMINAL_BW,[2],209.2 g
same,APTT,[2],16.1 s
same,Bas,[2],0%
same,Eos,[2],0.8%
same,Fbg,[2],204.6 mg/dL
same,Hb,[2],13.4 g/dL
same,Ht,[2],40.7%
same,Lym,[2],80.6%
same,MCH,[2],21.5 pg
same,MCHC,[2],33%
same,MCV,[2],65 fL
same,Mono,[2],8.8%
same,Neu,[2],10.2%
same,PT,[2],12.1 s
same,Plat,[2],96.4 x10_4/uL
same,RBC,[2],626.8 x10_4/ul
same,Ret,[2],8.6%
same,WBC,[2],112.4 x10_2/uL
same,KIDNEY_L,[2],0.9 g
same,KIDNEY_R,[2],0.9 g
same,KIDNEY_TOTAL,[2],1.9 g
same,LIVER,[2],10.1 g
same,A/G,[2],2.4
same,ALP,[2],1232.8 IU/L
same,ALT,[2],38.2 IU/L
same,AST,[2],70.6 IU/L
same,BUN,[2],16.4 mg/dL
same,CRE,[2],0.5 mg/dL
same,Ca,[2],10.4 mg/dL
same,Cl,[2],106.4 meq/L
same,DBIL,[2],0.004 mg/dL
same,GLC,[2],195.4 mg/dL
same,IP,[2],8.1 mg/dL
same,K,[2],4.9 meq/L
same,LDH,[2],83.6 IU/L
same,Na,[2],138.4 meq/L
same,PL,[2],140.6 mg/dL
same,RALB,[2],3.9 g/dL
same,TBIL,[2],0.3 mg/dL
same,TC,[2],75.4 mg/dL
same,TG,[2],95.2 mg/dL
same,TP,[2],5.6 g/dL
same,gamma-GTP,[2],1.4 IU/L
same,TERMINAL_BW,"5 mg/kg, 3 h, dose level High",201.4 g
same,TERMINAL_BW,"5 mg/kg, 3 h, dose level Low",224.1 g
same,APTT,"5 mg/kg, 3 h, dose level High",16.5 s
same,Bas,"5 mg/kg, 3 h, dose level High",0%
same,Eos,"5 mg/kg, 3 h, dose level High",0.2%
same,Fbg,"5 mg/kg, 3 h, dose level High",211 mg/dL
same,Hb,"5 mg/kg, 3 h, dose level High",13.6 g/dL
same,Ht,"5 mg/kg, 3 h, dose level High",41.1%
same,Lym,"5 mg/kg, 3 h, dose level High",78.4%
same,MCH,"5 mg/kg, 3 h, dose level High",21.5 pg
same,MCHC,"5 mg/kg, 3 h, dose level High",33.3%
same,MCV,"5 mg/kg, 3 h, dose level High",64.8 fL
same,Mono,"5 mg/kg, 3 h, dose level High",9%
same,Neu,"5 mg/kg, 3 h, dose level High",12.4%
same,PT,"5 mg/kg, 3 h, dose level High",12.5 s
same,Plat,"5 mg/kg, 3 h, dose level High",108.6 x10_4/uL
same,RBC,"5 mg/kg, 3 h, dose level High",634.6 x10_4/ul
same,Ret,"5 mg/kg, 3 h, dose level High",8.9%
same,WBC,"5 mg/kg, 3 h, dose level High",130.2 x10_2/uL
same,APTT,"5 mg/kg, 3 h, dose level Low",18.2 s
same,Eos,"5 mg/kg, 3 h, dose level Low",0.8%
same,Fbg,"5 mg/kg, 3 h, dose level Low",222.6 mg/dL
same,Hb,"5 mg/kg, 3 h, dose level Low",13.9 g/dL
same,Ht,"5 mg/kg, 3 h, dose level Low",38%
same,Lym,"5 mg/kg, 3 h, dose level Low",79.4%
same,MCH,"5 mg/kg, 3 h, dose level Low",22.1 pg
same,MCHC,"5 mg/kg, 3 h, dose level Low",36.6%
same,MCV,"5 mg/kg, 3 h, dose level Low",60.4 fL
same,Mono,"5 mg/kg, 3 h, dose level Low",2.8%
same,Neu,"5 mg/kg, 3 h, dose level Low",15.6%
same,PT,"5 mg/kg, 3 h, dose level Low",11.7 s
same,Plat,"5 mg/kg, 3 h, dose level Low",115.7 x10_4/uL
same,RBC,"5 mg/kg, 3 h, dose level Low",629.4 x10_4/ul
same,Ret,"5 mg/kg, 3 h, dose level Low",7.6%
same,WBC,"5 mg/kg, 3 h, dose level Low",76.1 x10_2/uL
same,KIDNEY_L,"5 mg/kg, 3 h, dose level High",0.9 g
same,KIDNEY_R,"5 mg/kg, 3 h, dose level High",1 g
same,KIDNEY_TOTAL,"5 mg/kg, 3 h, dose level High",1.9 g
same,KIDNEY_L,"5 mg/kg, 3 h, dose level Low",1 g
same,KIDNEY_TOTAL,"5 mg/kg, 3 h, dose level Low",2.1 g
same,LIVER,"5 mg/kg, 3 h, dose level High",9.2 g
same,LIVER,"5 mg/kg, 3 h, dose level Low",9.6 g
same,A/G,"5 mg/kg, 3 h, dose level High",1.5
same,ALP,"5 mg/kg, 3 h, dose level High",1085.6 IU/L
same,ALT,"5 mg/kg, 3 h, dose level High",42.6 IU/L
same,AST,"5 mg/kg, 3 h, dose level High",70.2 IU/L
same,BUN,"5 mg/kg, 3 h, dose level High",11 mg/dL
same,CRE,"5 mg/kg, 3 h, dose level High",0.4 mg/dL
same,Ca,"5 mg/kg, 3 h, dose level High",10.5 mg/dL
same,Cl,"5 mg/kg, 3 h, dose level High",105.2 meq/L
same,DBIL,"5 mg/kg, 3 h, dose level High",0.034 mg/dL
same,GLC,"5 mg/kg, 3 h, dose level High",191 mg/dL
same,IP,"5 mg/kg, 3 h, dose level High",9.5 mg/dL
same,K,"5 mg/kg, 3 h, dose level High",5 meq/L
same,LDH,"5 mg/kg, 3 h, dose level High",172 IU/L
same,Na,"5 mg/kg, 3 h, dose level High",137 meq/L
same,PL,"5 mg/kg, 3 h, dose level High",126.2 mg/dL
same,RALB,"5 mg/kg, 3 h, dose level High",3.6 g/dL
same,TBIL,"5 mg/kg, 3 h, dose level High",0.3 mg/dL
same,TC,"5 mg/kg, 3 h, dose level High",71.8 mg/dL
same,TG,"5 mg/kg, 3 h, dose level High",55 mg/dL
same,TP,"5 mg/kg, 3 h, dose level High",6.1 g/dL
same,gamma-GTP,"5 mg/kg, 3 h, dose level High",1.2 IU/L
same,A/G,"5 mg/kg, 3 h, dose level Low",1.6
same,ALP,"5 mg/kg, 3 h, dose level Low",872.4 IU/L
same,ALT,"5 mg/kg, 3 h, dose level Low",37.8 IU/L
same,AST,"5 mg/kg, 3 h, dose level Low",76.4 IU/L
same,BUN,"5 mg/kg, 3 h, dose level Low",10.8 mg/dL
same,Cl,"5 mg/kg, 3 h, dose level Low",103 meq/L
same,DBIL,"5 mg/kg, 3 h, dose level Low",0.068 mg/dL
same,GLC,"5 mg/kg, 3 h, dose level Low",187.6 mg/dL
same,IP,"5 mg/kg, 3 h, dose level Low",9.3 mg/dL
same,K,"5 mg/kg, 3 h, dose level Low",4.2 meq/L
same,LDH,"5 mg/kg, 3 h, dose level Low",213 IU/L
same,Na,"5 mg/kg, 3 h, dose level Low",140.8 meq/L
same,PL,"5 mg/kg, 3 h, dose level Low",145.6 mg/dL
same,RALB,"5 mg/kg, 3 h, dose level Low",3.3 g/dL
same,TBIL,"5 mg/kg, 3 h, dose level Low",0.1 mg/dL
same,TC,"5 mg/kg, 3 h, dose level Low",85.4 mg/dL
